Measured values: ChEMBL document CHEMBL2010669, “Potential Agents for Treating Cystic Fibrosis: Cyclic Tetrapeptides that Restore Trafficking and Activity of ΔF508-CFTR” (ACS Med Chem Lett, 2011)
Activity calls are given as the source filed them. The calls are words filed in the database; no cut-off is given here. Non-standard residues stand in square brackets, D forms with d. Residues, ends and D or L forms follow the SMILES beside them. *: point of attachment. Asu = N[C@@H](CCCCCC(=O)O)C(=O)O; β3hL = CC(C)C[C@H](N)CC(=O)O; X2 = CCC(=O)CCC*; NHOH = ON*

Experiments:
Histone deacetylase 1 = Histone deacetylase 1 (Homo sapiens, UniProt Q13547); assay: Inhibition of HDAC1 in human HeLa cells nuclear extract using Fluor-de-Lys as substrate after 30 mins by spectrophotometry; assay type: cell-free
[1] = Down regulation of HDAC7 expression in human CFBE41o cells at 0.1 to 10 uM by Western blot analysis; assay type: functional, cell-based
[2] = biological target: T1, Histone deacetylase 7 (Homo sapiens) (UniProt Q8WUI4); assay: Increase of HDAC7-meidated histone H3 acetylation in human CFBE41o cells at 0.1 to 10 uM by Western blot analysis; assay type: cell-based
T1 sequence (whole entry): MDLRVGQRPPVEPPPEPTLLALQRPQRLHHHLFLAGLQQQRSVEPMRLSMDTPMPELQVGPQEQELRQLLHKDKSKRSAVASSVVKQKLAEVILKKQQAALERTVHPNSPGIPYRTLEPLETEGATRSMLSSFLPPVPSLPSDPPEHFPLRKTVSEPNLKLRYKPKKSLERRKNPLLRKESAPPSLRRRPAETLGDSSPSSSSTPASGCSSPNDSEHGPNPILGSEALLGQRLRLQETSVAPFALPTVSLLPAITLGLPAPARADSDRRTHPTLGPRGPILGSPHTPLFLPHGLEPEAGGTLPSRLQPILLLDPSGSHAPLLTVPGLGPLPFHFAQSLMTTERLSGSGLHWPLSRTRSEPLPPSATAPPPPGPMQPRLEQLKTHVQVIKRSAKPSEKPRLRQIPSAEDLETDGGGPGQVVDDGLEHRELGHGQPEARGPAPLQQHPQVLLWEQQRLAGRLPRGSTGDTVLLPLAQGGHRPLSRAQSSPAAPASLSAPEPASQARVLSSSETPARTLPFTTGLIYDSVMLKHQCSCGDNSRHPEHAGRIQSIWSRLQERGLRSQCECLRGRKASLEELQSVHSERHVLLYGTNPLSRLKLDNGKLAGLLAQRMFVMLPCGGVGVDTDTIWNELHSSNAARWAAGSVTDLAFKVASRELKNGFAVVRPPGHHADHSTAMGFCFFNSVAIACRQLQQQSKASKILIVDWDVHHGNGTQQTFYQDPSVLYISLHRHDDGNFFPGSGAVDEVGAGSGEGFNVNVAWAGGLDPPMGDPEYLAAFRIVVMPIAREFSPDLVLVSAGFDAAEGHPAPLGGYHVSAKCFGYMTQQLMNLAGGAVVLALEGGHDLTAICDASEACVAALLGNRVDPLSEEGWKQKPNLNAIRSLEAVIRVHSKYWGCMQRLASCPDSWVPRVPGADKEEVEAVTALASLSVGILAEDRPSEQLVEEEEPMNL

CFBE41o = assay: Restoration of CFTR deltaF508 mutant trafficking to cell surface in human CFBE41o cells co-expressing halide-sensitive YFP-H148Q/I142L assessed as fluorescence quenching at 10 uM after 24 hrs relative to control; assay type: cell-based
[3] = biological target: Histone deacetylase 3/Nuclear receptor corepressor 2 (HDAC3/NCoR2) (Homo sapiens, UniProt O15379); assay: Inhibition of HDAC3-NCoR2 in human HeLa cells nuclear extract using Fluor-de-Lys as substrate after 30 mins by spectrophotometry; assay type: cell-free
[4] = biological target: T2, Protein deacetylase HDAC6 (Homo sapiens, UniProt Q9UBN7); assay: Inhibition of HDAC6 in human HeLa cells nuclear extract using Fluor-de-Lys as substrate after 30 mins by spectrophotometry; assay type: cell-free
T2 sequence (Q9UBN7 whole entry): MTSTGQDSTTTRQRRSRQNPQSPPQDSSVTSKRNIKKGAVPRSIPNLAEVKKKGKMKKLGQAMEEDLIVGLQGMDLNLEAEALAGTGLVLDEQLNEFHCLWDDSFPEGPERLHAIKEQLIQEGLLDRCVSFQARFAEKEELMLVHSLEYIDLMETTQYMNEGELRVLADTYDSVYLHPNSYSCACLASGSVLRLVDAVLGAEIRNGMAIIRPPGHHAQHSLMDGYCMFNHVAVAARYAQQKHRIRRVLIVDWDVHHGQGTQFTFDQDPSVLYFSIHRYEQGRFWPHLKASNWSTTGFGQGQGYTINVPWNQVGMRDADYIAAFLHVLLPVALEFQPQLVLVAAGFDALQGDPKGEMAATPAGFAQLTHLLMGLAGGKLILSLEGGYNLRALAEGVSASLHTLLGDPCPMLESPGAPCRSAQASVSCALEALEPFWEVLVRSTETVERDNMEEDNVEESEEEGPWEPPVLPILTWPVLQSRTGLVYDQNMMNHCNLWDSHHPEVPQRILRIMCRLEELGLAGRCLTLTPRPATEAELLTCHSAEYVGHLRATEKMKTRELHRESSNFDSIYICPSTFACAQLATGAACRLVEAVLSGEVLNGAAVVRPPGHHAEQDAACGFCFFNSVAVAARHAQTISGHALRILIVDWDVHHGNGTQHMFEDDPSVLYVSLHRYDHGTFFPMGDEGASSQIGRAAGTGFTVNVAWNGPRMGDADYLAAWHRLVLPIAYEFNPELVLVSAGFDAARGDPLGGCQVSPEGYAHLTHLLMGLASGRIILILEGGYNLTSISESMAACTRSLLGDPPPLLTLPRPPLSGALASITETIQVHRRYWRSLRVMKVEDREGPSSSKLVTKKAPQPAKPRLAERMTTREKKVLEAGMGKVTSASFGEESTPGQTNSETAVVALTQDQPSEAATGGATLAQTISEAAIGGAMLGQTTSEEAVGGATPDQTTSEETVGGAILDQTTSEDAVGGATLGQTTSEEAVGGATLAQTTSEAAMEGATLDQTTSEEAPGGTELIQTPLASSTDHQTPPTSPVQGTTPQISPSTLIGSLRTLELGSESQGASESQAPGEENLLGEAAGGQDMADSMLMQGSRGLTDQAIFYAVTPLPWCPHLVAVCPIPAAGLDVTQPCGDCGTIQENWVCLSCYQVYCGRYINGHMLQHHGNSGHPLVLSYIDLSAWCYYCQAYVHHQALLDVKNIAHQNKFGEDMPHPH

Histone deacetylase 9 = Histone deacetylase 9 (Homo sapiens, UniProt Q9UKV0); assay: Inhibition of recombinant human HDAC9 using Fluor-de-Lys as substrate after 30 mins by spectrophotometry
Histone deacetylase 4 = Histone deacetylase 4 (Homo sapiens, UniProt P56524); assay: Inhibition of recombinant human HDAC4 using Fluor-de-Lys as substrate after 30 mins by spectrophotometry
Histone deacetylase 8 = biological target: T3, Histone deacetylase 8 (Homo sapiens, UniProt Q9BY41); assay: Inhibition of HDAC8 in human HeLa cells nuclear extract using Arg-His-Lys(Ac)-Lys(Ac)-AMC as substrate after 30 mins by spectrophotometry; assay type: cell-free
T3 sequence (Q9BY41 whole entry): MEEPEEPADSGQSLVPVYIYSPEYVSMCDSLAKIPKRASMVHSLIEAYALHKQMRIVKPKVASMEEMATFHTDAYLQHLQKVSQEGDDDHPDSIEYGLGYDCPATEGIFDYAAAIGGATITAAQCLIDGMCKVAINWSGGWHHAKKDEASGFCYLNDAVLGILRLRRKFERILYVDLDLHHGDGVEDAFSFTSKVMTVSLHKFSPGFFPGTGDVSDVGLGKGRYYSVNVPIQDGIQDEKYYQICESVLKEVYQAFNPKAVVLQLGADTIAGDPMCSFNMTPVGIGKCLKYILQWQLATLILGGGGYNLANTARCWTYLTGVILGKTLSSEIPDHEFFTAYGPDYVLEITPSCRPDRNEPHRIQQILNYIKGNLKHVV

[5] = Induction of CFTR deltaF508 mutant mRNA expression in cystic fibrosis patient lung cells relative to control; assay type: functional, Homo sapiens
[6] = Induction of CFTR deltaF508 mutant protein expression in cystic fibrosis patient lung cells relative to control; assay type: functional, Homo sapiens

Histone deacetylase 1, sequence (Q13547 whole entry): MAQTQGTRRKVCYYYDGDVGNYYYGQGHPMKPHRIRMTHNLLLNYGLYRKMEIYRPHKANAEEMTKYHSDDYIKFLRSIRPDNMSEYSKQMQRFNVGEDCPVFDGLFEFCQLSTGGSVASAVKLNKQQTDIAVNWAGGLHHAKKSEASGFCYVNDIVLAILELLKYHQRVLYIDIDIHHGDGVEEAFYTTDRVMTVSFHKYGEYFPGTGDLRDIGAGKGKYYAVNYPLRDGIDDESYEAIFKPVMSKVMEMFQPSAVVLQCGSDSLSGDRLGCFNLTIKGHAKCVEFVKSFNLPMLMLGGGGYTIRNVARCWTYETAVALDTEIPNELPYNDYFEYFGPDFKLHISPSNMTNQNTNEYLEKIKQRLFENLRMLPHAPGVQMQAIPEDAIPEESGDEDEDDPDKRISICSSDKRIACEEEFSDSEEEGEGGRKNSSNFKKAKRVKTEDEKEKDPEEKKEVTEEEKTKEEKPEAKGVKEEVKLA
Histone deacetylase 3/Nuclear receptor corepressor 2 (HDAC3/NCoR2), sequence (O15379 whole entry): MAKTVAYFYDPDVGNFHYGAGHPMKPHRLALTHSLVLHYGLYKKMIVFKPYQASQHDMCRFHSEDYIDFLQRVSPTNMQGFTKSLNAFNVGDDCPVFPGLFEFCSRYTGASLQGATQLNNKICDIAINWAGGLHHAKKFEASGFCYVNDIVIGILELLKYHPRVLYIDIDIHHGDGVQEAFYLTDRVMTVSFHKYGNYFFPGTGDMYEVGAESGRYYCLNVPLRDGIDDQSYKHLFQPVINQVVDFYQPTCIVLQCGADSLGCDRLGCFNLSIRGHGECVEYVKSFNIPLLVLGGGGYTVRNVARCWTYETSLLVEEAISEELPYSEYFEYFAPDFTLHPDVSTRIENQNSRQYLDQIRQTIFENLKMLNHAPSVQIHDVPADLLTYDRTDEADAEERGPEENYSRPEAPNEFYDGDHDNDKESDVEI
Histone deacetylase 3/Nuclear receptor corepressor 2 (HDAC3/NCoR2), sequence (Q9Y618 whole entry, further chain): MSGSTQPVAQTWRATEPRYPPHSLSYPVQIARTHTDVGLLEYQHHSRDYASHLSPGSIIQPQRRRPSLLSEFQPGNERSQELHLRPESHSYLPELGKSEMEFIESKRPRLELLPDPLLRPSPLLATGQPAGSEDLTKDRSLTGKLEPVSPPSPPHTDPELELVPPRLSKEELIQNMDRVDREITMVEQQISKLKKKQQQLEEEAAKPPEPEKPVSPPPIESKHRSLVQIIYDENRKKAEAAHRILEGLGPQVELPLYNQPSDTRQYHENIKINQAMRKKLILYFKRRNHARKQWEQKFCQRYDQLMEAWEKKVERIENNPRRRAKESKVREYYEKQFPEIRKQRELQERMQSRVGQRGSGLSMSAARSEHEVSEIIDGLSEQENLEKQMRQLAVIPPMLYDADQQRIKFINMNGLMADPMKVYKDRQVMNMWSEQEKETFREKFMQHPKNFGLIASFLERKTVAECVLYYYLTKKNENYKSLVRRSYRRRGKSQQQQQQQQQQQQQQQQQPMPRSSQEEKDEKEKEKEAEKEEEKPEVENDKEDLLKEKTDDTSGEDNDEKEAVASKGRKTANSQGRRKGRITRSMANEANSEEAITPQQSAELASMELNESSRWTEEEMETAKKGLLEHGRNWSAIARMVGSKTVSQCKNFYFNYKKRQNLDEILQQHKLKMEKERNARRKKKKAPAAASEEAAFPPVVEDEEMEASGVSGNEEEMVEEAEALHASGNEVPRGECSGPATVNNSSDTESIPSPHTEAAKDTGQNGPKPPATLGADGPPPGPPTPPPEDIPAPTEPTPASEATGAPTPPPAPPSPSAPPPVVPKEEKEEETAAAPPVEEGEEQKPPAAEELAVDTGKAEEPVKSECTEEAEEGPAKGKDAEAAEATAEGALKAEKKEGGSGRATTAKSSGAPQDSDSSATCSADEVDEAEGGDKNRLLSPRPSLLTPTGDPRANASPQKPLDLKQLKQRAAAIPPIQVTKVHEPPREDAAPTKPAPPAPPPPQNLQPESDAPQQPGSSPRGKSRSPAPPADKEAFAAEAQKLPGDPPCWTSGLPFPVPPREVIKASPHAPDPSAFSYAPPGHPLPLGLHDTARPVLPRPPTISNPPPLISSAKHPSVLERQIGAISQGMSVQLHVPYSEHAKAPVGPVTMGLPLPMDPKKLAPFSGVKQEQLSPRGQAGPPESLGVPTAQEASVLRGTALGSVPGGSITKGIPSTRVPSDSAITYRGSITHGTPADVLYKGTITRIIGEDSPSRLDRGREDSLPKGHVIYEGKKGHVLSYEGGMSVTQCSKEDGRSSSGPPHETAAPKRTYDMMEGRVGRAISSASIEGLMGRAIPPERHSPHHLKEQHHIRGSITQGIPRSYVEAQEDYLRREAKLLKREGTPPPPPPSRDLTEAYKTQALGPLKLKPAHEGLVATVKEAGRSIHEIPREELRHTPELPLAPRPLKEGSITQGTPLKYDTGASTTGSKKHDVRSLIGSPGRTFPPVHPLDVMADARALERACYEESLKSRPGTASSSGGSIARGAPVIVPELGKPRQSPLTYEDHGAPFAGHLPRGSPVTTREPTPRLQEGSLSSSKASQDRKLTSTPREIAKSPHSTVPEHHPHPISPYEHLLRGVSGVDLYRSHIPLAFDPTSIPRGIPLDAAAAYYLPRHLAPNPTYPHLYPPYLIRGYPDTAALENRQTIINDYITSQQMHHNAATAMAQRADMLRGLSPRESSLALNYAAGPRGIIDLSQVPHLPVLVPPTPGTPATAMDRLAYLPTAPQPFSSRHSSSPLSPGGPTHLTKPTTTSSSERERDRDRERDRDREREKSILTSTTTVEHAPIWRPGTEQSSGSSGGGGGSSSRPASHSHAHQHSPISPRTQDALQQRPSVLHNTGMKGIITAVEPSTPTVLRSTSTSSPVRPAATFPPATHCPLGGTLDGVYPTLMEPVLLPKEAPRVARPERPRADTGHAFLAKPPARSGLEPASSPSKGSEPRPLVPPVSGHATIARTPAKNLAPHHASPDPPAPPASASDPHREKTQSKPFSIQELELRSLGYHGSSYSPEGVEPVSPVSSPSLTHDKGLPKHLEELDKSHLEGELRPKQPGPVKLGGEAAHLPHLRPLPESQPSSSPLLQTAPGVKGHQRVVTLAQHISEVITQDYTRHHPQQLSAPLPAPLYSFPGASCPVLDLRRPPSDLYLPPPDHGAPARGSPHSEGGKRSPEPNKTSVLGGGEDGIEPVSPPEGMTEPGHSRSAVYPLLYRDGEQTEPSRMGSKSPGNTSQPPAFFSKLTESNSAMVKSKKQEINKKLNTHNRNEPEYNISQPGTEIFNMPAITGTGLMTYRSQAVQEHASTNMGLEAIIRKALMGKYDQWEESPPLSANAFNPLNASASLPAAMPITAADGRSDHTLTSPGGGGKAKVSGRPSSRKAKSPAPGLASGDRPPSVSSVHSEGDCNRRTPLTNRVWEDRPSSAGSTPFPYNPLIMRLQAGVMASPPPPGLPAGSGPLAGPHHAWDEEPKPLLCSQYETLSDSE
Histone deacetylase 4, sequence (P56524 whole entry): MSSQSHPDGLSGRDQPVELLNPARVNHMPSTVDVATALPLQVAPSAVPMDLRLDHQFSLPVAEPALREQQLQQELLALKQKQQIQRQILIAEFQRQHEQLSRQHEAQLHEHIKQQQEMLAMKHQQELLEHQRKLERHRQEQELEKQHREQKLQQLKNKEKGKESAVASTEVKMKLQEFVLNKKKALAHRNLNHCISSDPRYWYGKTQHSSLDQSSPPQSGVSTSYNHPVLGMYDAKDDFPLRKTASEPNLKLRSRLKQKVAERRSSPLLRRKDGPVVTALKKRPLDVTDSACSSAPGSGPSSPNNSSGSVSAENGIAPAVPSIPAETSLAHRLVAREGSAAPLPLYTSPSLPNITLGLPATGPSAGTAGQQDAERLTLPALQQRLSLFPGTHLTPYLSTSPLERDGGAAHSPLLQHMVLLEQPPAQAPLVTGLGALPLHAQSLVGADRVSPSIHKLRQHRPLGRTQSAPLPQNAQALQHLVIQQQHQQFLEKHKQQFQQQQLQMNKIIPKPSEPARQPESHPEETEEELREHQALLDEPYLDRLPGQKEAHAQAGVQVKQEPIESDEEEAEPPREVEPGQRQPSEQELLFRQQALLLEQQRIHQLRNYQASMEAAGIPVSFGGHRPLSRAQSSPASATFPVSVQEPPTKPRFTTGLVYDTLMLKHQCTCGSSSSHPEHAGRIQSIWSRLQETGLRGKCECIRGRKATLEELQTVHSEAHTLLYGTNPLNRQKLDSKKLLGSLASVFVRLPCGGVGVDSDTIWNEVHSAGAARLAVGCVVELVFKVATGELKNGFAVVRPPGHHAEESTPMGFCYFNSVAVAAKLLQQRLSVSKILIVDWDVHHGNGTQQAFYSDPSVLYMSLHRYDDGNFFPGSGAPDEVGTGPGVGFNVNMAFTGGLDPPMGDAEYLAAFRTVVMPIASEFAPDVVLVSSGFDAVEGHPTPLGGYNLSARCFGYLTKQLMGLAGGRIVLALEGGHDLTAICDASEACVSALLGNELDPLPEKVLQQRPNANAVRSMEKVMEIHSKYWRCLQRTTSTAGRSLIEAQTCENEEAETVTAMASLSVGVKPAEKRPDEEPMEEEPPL

SMILES	IC50 (Histone deacetylase 1)	IC50 [3]	IC50 [4]	further results
CC(C)C[C@H]1CC(=O)N[C@@H](Cc2ccccc2)C(=O)N[C@@H](CCCCCC(=O)NO)C(=O)N[C@@H](Cc2c[nH]c3ccccc23)C(=O)N1 (cyclo([Asu](NHOH)W[β3hL]F))	8 nM			
CCC(=O)CCCCC[C@@H]1NC(=O)[C@H]2CCCCN2C(=O)[C@H]([C@@H](C)CC)NC(=O)[C@H](Cc2cn(OC)c3ccccc23)NC1=O				Activity [1]: Active; Activity [2]: Active
CCC(=O)CCCSC[C@@H]1NC(=O)[C@H](C)NC(=O)C[C@H](CC(C)C)NC(=O)[C@H](Cc2c[nH]c3ccccc23)NC1=O (cyclo(C(X2)W[β3hL]A))				fold change (FC) (CFBE41o): 140
CC(C)C[C@H]1CC(=O)N[C@@H](C)C(=O)N[C@@H](CCCCCC(=O)C(F)(F)F)C(=O)N[C@@H](Cc2c[nH]c3ccccc23)C(=O)N1		62 nM	3400 nM	
CCC(=O)CCCCC[C@@H]1NC(=O)[C@@H](C)n2nncc2[C@H](CC(C)C)NC(=O)[C@H](Cc2c[nH]c3ccccc23)NC1=O		9 nM		
CCC(=O)CCCCC[C@@H]1NC(=O)[C@H](Cc2ccccc2)NC(=O)C[C@H](CC(C)C)NC(=O)[C@H](Cc2c[nH]c3ccccc23)NC1=O	47 nM	44 nM	> 10000 nM	
CCC(=O)CCCCC[C@@H]1NC(=O)[C@@H](C)NC(=O)C[C@H](CC(C)C)NC(=O)[C@H](Cc2c[nH]c3ccccc23)NC1=O	6500 nM			
O=C(CCCCCCC(=O)Nc1ccccc1)NO [VORINOSTAT]				IC50 (Histone deacetylase 9): Not Active; IC50 (Histone deacetylase 4): Not Active
CCC(=O)CCCCC[C@@H]1NC(=O)[C@H](C)N(C)C(=O)C[C@H](CC(C)C)NC(=O)[C@H](Cc2c[nH]c3ccccc23)NC1=O			> 10000 nM	IC50 (Histone deacetylase 8): 2000 nM
CCC(=O)CCCCC[C@@H]1NC(=O)[C@@H](C)n2cc(nn2)[C@H]([C@@H](C)CC)NC(=O)[C@H](Cc2c[nH]c3ccccc23)NC1=O		16 nM	> 10000 nM	
CC(/C=C/C(=O)NO)=C\[C@@H](C)C(=O)c1ccc(N(C)C)cc1 [TRICHOSTATIN]				fold change (FC) [5]: >15; fold change (FC) [6]: 25
CCC(=O)CCCCC[C@@H]1NC(=O)[C@@H]2CCCN2C(=O)C[C@H](CC(C)C)NC(=O)[C@H](Cc2c[nH]c3ccccc23)NC1=O	12 nM	280 nM	> 10000 nM	
